23 compounds from patent US9434711B2 (Janssen Pharmaceutica, NV, priority 2007, dated 2016) can be followed below.

The experiment addresses canine TRPM8 (Canis lupus familiaris, UniProt Q1A7N1). The experiment in a line: In Vitro Canine TRPM8 Functional Assay (Ca2+ fluorescence, icilin activation). It counts as cell-based. The settings on record: for IC50: read-out: IC50; for inhibition at 0.2 µM: read-out: % Inh @ 0.2; for inhibition at 0.5 µM: compound at 0.5 μM, read-out: % Inh @ 0.5. Put shortly:
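HEK293 cells stably expressing canine TRPM8 were loaded with Calcium 3 dye (35 min at 37 °C, then 25 min at room temperature). Compound was added and Ca2+ fluorescence was read for 5 min before icilin at a concentration giving about 80% maximal response. EC50/IC50 came from eight-point dose-response curves, quadruplicate wells.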

Where [1] appears, read: HEK293 cells stably expressing canine TRPM8, icilin activation, eight-point dose-response.
Setting [2] is: compound at 0.2 μM, canine TRPM8, icilin activation.
The mark [3] stands for this setting: 0.2 μM compound, HEK293 cells stably expressing canine TRPM8, icilin activation.
Setting [4] is: canine TRPM8, icilin activation.

Each structure is given as a SMILES string. Read-outs that look alike come from different tables or passages of the source.

Chain of canine TRPM8 (Q1A7N1 1-1104): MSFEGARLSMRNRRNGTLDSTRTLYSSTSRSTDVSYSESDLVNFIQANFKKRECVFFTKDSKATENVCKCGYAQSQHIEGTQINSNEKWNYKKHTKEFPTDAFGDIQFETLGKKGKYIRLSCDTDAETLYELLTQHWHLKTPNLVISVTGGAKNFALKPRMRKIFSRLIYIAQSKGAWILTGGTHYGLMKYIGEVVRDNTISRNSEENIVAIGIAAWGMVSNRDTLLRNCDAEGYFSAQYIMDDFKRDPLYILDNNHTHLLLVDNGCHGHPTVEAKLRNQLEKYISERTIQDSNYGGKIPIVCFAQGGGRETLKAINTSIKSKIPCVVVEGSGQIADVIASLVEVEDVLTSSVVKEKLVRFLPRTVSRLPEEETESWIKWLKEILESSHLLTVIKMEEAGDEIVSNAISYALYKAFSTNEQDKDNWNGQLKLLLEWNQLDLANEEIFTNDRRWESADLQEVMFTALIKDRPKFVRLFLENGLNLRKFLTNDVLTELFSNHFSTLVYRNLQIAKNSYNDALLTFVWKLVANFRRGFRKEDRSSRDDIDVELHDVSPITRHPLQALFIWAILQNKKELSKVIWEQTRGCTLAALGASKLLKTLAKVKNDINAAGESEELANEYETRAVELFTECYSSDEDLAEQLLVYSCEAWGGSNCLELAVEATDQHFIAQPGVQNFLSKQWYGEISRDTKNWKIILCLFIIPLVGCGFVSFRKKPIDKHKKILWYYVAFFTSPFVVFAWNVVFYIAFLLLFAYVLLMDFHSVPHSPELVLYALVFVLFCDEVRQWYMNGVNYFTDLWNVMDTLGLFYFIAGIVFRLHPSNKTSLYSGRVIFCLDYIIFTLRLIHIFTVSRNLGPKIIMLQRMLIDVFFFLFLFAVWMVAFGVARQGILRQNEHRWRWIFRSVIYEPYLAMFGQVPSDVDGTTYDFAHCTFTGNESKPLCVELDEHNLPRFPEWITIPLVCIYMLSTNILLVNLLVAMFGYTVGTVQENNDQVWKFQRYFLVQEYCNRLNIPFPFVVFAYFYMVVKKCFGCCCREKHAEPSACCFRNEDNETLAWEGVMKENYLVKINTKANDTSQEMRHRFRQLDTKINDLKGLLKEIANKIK

Usually IC50 stands for the midpoint of a concentration-inhibition curve. As to `O=C(O)c1ccc(S(=O)(=O)N(CCCC(F)(F)F)c2cc3ccccc3s2)cc1` [Compound 451, N-(Benzo[b]thiophen-2-yl)-N-(4,4,4-trifluoro-butyl)-4-carboxy-benzenesulfonamide], under setting [1], the IC50 was 68 nM. Besides, the inhibition at 0.2 µM under setting [2] was determined as 97%. With `O=S(=O)(c1cccnc1)N(CCCC(F)(F)F)c1cc2ccccc2s1` [Compound 383, N-(Benzo[b]thiophen-2-yl)-N-(4,4,4-trifluoro-butyl)-pyridin-3-ylsulfonamide], the inhibition at 0.2 µM under setting [2] came to 49%.

Consider `Cc1c(N(CCF)S(=O)(=O)c2ccc(F)c(F)c2)sc2ccccc12` [Compound 841, N-(2-Fluoro-ethyl)-N-(3-methyl-benzo[b]thiophen-2-yl)-3,4-difluoro-benzenesulfonamide], for which the inhibition at 0.2 µM under setting [3] came to 55%.

For the compound `O=C(O)c1ccc(S(=O)(=O)N(CC2CCOCC2)c2sc3ccccc3c2Br)cc1` [Compound 440, N-(3-Bromo-benzo[b]thiophen-2-yl)-N-((tetrahydro-2H-pyran-4-yl)methyl)-4-carboxy-benzenesulfonamide], under setting [1], the IC50 came to 14 nM. Further, under setting [2], the inhibition at 0.2 µM was 84%. `Cc1c(N(Cc2ccc(F)c(F)c2)S(=O)(=O)c2cccc(O)c2)sc2ccccc12` [Compound 286, N-(3,4-Difluoro-benzyl)-N-(3-methyl-benzo[b]thiophen-2-yl)-3-hydroxy-benzenesulfonamide]: the IC50 under setting [1] came out at 7 nM. For the same compound, under setting [4], the inhibition at 0.5 µM turned out to be 99%. With `Cc1c(N(Cc2ccc(F)c(F)c2)S(=O)(=O)Cc2ccccc2)sc2ccccc12` [Compound 126, N-(3,4-Difluoro-benzyl)-N-(3-methyl-benzo[b]thiophen-2-yl)-phenyl-methanesulfonamide], the inhibition at 0.5 µM under setting [4] was found to be 45%. For the compound `CCCCN(c1sc2ccccc2c1Cl)S(=O)(=O)c1ccccc1` [Compound 83, N-(Butyl)-N-(3-chloro-benzo[b]thiophen-2-yl)-benzenesulfonamide], the IC50 under setting [1] turned out to be 48 nM. Also, under setting [4], the inhibition at 0.5 µM is 101%. Regarding `Cc1c(N(CCCCC(F)(F)F)S(=O)(=O)c2ccc(N(C)C)cc2)sc2ccccc12` [Compound 748, N-(3-Methyl-benzo[b]thiophen-2-yl)-N-(5,5,5-trifluoro-pentyl)-4-dimethylamino-benzenesulfonamide], the IC50 under setting [1] came out at 5.3 nM. Moreover, the inhibition at 0.2 µM under setting [2] was found to be 101%. Consider `O=S(=O)(c1ccccc1)N(Cc1ccccc1)c1sc2ccccc2c1Br` [Compound 175, N-(Benzyl)-N-(3-bromo-benzo[b]thiophen-2-yl)-benzenesulfonamide], for which the IC50 under setting [1] turned out to be 4.6 nM. Also, the inhibition at 0.5 µM under setting [4] was found to be 97%. Consider `Cc1c(N(CCC(F)(F)F)S(=O)(=O)CC(F)(F)F)sc2ccccc12` [Compound 671, N-(3-Methyl-benzo[b]thiophen-2-yl)-N-(3,3,3-trifluoro-propyl)-2,2,2-trifluoro-ethanesulfonamide], for which the IC50 under setting [1] came out at 34.5 nM. Also, under setting [2], the inhibition at 0.2 µM came to 100%.

For `CNc1ccc(S(=O)(=O)N(CCC2CC2)c2sc3ccccc3c2Cl)cc1` [Compound 690, N-(3-Chloro-benzo[b]thiophen-2-yl)-N-(2-cyclopropyl-ethyl)-4-methylamino-benzenesulfonamide], under setting [1], the IC50 was determined as 16.1 nM. Besides, the inhibition at 0.2 µM under setting [2] amounted to 101%.

As for `Cc1c(N(Cc2ccc(F)c(C(F)(F)F)c2)S(=O)(=O)c2cc(C(=O)O)cs2)sc2ccccc12` [Compound 527, N-(3-Methyl-benzo[b]thiophen-2-yl)-N-(4-fluoro-3-trifluoromethyl-benzyl)-4-carboxy-thien-2-ylsulfonamide], under setting [1], the IC50 is 5 nM. For the same compound, the inhibition at 0.2 µM under setting [2] was found to be 101%. In the case of `O=S(=O)(c1ccc(Br)cc1)N(CCC(F)(F)F)c1cc2ccccc2s1` [Compound 476, N-(Benzo[b]thiophen-2-yl)-4-(bromo)-N-(3,3,3-trifluoro-propyl)-benzenesulfonamide], the inhibition at 0.2 µM under setting [2] came out at 39%.

As to `CCS(=O)(=O)N(Cc1c(F)cnc(F)c1F)c1sc2ccccc2c1C` [Compound 840, N-(3-Methyl-benzo[b]thiophen-2-yl)-N-(2,3,5-trifluoro-pyridin-4-ylmethyl)-ethanesulfonamide], under setting [3], the inhibition at 0.2 µM was 71.1%. The IC50 (HEK293 cells stably expressing canine TRPM8, icilin activation, average of two or more determinations) is 98.1 nM. As for `Nc1ccc(S(=O)(=O)N(Cc2ccc(F)c(C(F)(F)F)c2)c2cc3ccccc3s2)cc1` [Compound 653, 4-Amino-N-(benzo[b]thiophen-2-yl)-N-(4-fluoro-3-trifluoromethyl-benzyl)-benzenesulfonamide], the IC50 under setting [1] turned out to be 13 nM. Further, the inhibition at 0.2 µM under setting [2] stood at 102%. In the case of `COC(=O)c1ccc(S(=O)(=O)N(Cc2ccc(F)c(C(F)(F)F)c2)c2sc3ccccc3c2C(C)(C)O)cc1` [Compound 415, N-(4-Fluoro-3-trifluoromethylbenzyl)-N-(3-(1-hydroxy-1-methyl-ethyl)-benzo[b]thiophen-2-yl)-4-carbomethoxy-benzenesulfonamide], the IC50 under setting [1] came to 5 nM. For the same compound, the inhibition at 0.2 µM under setting [2] stood at 92%. Take `COc1cccc(CN(c2sc3ccccc3c2Br)S(=O)(=O)c2ccccc2)c1` [Compound 162, N-(3-Bromo-benzo[b]thiophen-2-yl)-N-(3-methoxy-benzyl)-benzenesulfonamide]: the IC50 under setting [1] came out at 4.5 nM. The inhibition at 0.5 µM under setting [4] is 101%. Regarding `CN(C)C1=C(N(CCC2CC2)S(=O)(=O)c2ccccc2)S(=O)(=O)c2ccccc21` [Compound 643, N-(2-Cyclopropylethyl)-N-(3-dimethylamino-1,1-dioxo-1H-benzo[b]thiophen-2-yl)-benzenesulfonamide], under setting [1], the IC50 is 5 nM. Also, the inhibition at 0.2 µM under setting [2] is 103%. The matching figures for `Cc1c(N(Cc2cc(C(F)(F)F)ccc2F)S(=O)(=O)c2ccc(C(=O)O)cc2)sc2ccccc12` [Compound 519, N-(3-Methyl-benzo[b]thiophen-2-yl)-N-(2-fluoro-5-trifluoromethyl-benzyl)-4-carboxy-benzenesulfonamide]: 6 nM and 102%. In the case of `Cc1c(N(Cc2ccc(OC(F)(F)F)cc2)S(=O)(=O)c2cn(C)cn2)sc2ccccc12` [Compound 11, N-(3-Methyl-benzo[b]thiophen-2-yl)-N-(4-trifluoromethoxy-benzyl)-1-methyl-1H-imidazole-4-sulfonamide], the IC50 under setting [1] was 33 nM. The inhibition at 0.5 µM under setting [4] worked out at 97%. Take `Cc1c(N(CCCC(F)(F)F)S(=O)(=O)CCC(=O)O)sc2ccccc12` [Compound 605, N-(3-Methyl-benzo[b]thiophen-2-yl)-N-(4,4,4-trifluoro-butyl)-2-carboxy-ethanesulfonamide]: under setting [2], the inhibition at 0.2 µM is 18%. Take `Cc1c(N(Cc2ccc(F)c(C(F)(F)F)c2)S(=O)(=O)c2ccc(-c3nsc(=O)[nH]3)cc2)sc2ccccc12` [Compound 784, N-(3-Methyl-benzo[b]thiophen-2-yl)-N-(4-fluoro-3-trifluoromethyl-benzyl)-4-(5-oxo-4,5-dihydro-[1,2,4]thiadiazol-3-yl)-benzenesulfonamide]: under setting [1], the IC50 is 3.3 nM. For the same compound, the inhibition at 0.2 µM under setting [2] turned out to be 102%. As to `O=C(O)c1ccc(S(=O)(=O)N(CC2CCC2)c2sc3ccccc3c2Br)cc1` [Compound 437, N-(3-Bromo-benzo[b]thiophen-2-yl)-N-(cyclobutylmethyl)-4-carboxy-benzenesulfonamide], the IC50 under setting [1] is 9 nM. In addition, the inhibition at 0.2 µM under setting [2] amounted to 92%.
